Source: US9910050B2, “Mutant smoothened and methods of using the same” (Curis, Inc., priority 2009, dated 2018)
“Also recorded” adds a separate entry of the source. Values belong to the molecule of their own block, whether it stands above or below them.

How the values were obtained:
[1] = system: Smo localization to the primary cilium in S12 cells; assay: Smo immunostaining, ciliary localization in S12 cells; details: 16 h; for ciliary accumulation of Smo in the absence of Hh stimulation: no Shh; for effect on Smo localization compared with GDC-0449: absence or presence of Shh, 1 μM
SMO-WT = target: T1, SMO-WT (Homo sapiens, UniProt Q99835); assay: Gli-luciferase reporter assay in C3H10T½ cells transfected with SMO-WT; format: cell-based
T1 construct: expressed in transfected cells; host or cells: C3H10T½ cells (reporter assay)

SMO-D473H = target: T2, SMO-D473H (Homo sapiens, UniProt Q99835, D473H); assay: Gli-luciferase reporter assay in C3H10T½ cells transfected with SMO-D473H; format: cell-based; details: for activity against SMO-D473H, inhibition of Gli-luciferase activity: screen at 1 μM compound
T2 construct: expressed in transfected cells; host or cells: C3H10T½ cells (reporter assay)
Method: For the PTCH1 inhibition experiments, cells were transfected with an additional 200 ng of DNA containing varying ratios of PTCH1 to eGFP expression constructs. For the NF-κB and SV40 reporter assays, Gli-BS was replaced with either pGL4.32 or pGL3-Promoter. Six hours later, cells were collected by trypsin treatment and each well was redistributed over four wells of a 12-well plate. The FBS content of the culture medium was reduced to 0.5% the following morning to induce formation of primary cilia, and small molecule Hh inhibitors were added at indicated concentrations. […] Values were divided by Renilla luciferase activities to normalize for transfection efficiency and are shown as the mean of three separate experiments±1 standard deviation.

[2] = Mouse pharmacokinetic study; format: in vivo; details: for pharmacokinetic properties in mice: oral
Method: Mouse pharmacokinetic studies. […] Briefly, 24 female CD-1 mice weighing 25 to 33 g at study initiation were given a single oral 100 mg kg−1 dose of either compound 4 or 5 as a suspension in 0.5% methylcellulose with 0.2% Tween-80 (MCT). Blood samples (n=3 mice per time point) were collected in tubes containing EDTA as an an anticoagulant by terminal cardiac puncture under isoflurane at the following time points: 5, 15 and 30 min; and 1, 3, 6, 9 and 24 h post-dose. Blood samples were centrifuged to collect plasma, which was stored at −80° C. until drug concentrations were quantified by LC/MS/MS.

[3] = system: SG274 allografts (Smo-D477G); assay: Tumor growth of subcutaneous SG274 MB allografts; format: in vivo, mouse; details: compound 5 100 mg kg−1 once daily, oral
From the text: (§1) Drug treatment of animals with MB allografts. Tumor-hearing animals were generated via serial subcutaneous propagation of murine Ptch+/−; p53−/− MB tumor lines (Wetmore C. et al. (2001) Cancer Res. 61:513-516). Subcutaneous tumors 1500-2000 mm3 were excised from donor mice under aseptic conditions, minced in High Glucose DMEM by repeated slicing and chopping with two #10 scalpels and passed through a cell dissociation sieve (Sigma, CD1-1KT). The resulting single cell suspension was washed twice in High Glucose DMEM and filtered through a 70 μm nylon cell strainer (BD Falcon) before counting in a Vi-CELL cell viability analyzer (Beckman Coulter). Approximately 2.5-4×10^6 live cells in a 100 μl volume were injected subcutaneously into the right lateral thorax of 7 to 10-week-old female CD-1 nude mice (CRL). Tumor dimensions were measured with Ultra Cal1 IV calipers (Fred V. Fowler Company Inc., Newton, Mass.) and tumor volume was calculated using the formula v=0.5×a×b2, where a and b are the […] perpendicular tumor diameters, respectively. When tumors reached 125-350 mm^3 in volume, animals were separated into treatment groups with similarly sized tumors and drug administration was initiated. […]

[4] = system: Gli1 mRNA in SG274 tumors; assay: Gli1 mRNA levels by qRT-PCR in SG274 tumors; format: in vivo, mouse; details: compound 5 100 mg kg−1 once daily, collected 6 hours after last treatment
endogenous SMO = target: T3, endogenous SMO (Mus musculus, UniProt P56726); assay: Inhibition of endogenous SMO following stimulation by Hh ligand; format: cell-based; details: data not shown
T3 construct: endogenous in cells

[5] = system: Smo localization to the primary cilium; details: literature reports; cited from earlier work
human hepatocytes = assay: Metabolism by human hepatocytes; format: in vitro ADME; details: unpublished observation
[6] = system: control and GDC-0449-resistant MB allografts; assay: Tumor growth of control and GDC-0449-resistant MB allografts, PI3K inhibitor study; format: in vivo, mouse; details: GDC-0941 150 mg kg−1 once daily, oral, SG102, SG152, SG274
From the text: as §1

[7] = system: pAKT and pS6 (PI3K pathway); assay: Immunoblot of activated AKT and S6 in MB allograft tumors; format: in vivo, mouse; details: 6-hour treatment with GDC-0941
Method: Immunoblotting. Frozen tumor samples were lysed in M-PER Mammalian Protein Extraction Reagent (Pierce) containing protease and phosphatase inhibitors. Lysates were separated on 4-12% Bis-Tris gels and proteins were transferred onto PVDF membranes with an iBlot (Invitrogen). Blots were blocked and incubated overnight at 4° C. with 5% milk containing one of the following primary antibodies; anti-cyclin D1 (Cell Signaling, #2922), anti-phospho(Ser473)-AKT (Cell Signaling, #4060), anti-total AKT (Cell Signaling #9272), anti-Gli2 (Cho A. et al. (2008) Dev. Biol. 321:27-39), or anti-actin (Santa Cruz Biotechnology, sc-47778), followed by a 1 h incubation at RT with appropriate HRP-conjugated secondary antibodies. Antigen-antibody interactions were visualized with SuperSignal West Dura Extended Duration Substrate (Pierce).

[8] = 5 μM for cyclopamine, 1 μM for the others

T2 sequence (Q99835 28-787 D473H): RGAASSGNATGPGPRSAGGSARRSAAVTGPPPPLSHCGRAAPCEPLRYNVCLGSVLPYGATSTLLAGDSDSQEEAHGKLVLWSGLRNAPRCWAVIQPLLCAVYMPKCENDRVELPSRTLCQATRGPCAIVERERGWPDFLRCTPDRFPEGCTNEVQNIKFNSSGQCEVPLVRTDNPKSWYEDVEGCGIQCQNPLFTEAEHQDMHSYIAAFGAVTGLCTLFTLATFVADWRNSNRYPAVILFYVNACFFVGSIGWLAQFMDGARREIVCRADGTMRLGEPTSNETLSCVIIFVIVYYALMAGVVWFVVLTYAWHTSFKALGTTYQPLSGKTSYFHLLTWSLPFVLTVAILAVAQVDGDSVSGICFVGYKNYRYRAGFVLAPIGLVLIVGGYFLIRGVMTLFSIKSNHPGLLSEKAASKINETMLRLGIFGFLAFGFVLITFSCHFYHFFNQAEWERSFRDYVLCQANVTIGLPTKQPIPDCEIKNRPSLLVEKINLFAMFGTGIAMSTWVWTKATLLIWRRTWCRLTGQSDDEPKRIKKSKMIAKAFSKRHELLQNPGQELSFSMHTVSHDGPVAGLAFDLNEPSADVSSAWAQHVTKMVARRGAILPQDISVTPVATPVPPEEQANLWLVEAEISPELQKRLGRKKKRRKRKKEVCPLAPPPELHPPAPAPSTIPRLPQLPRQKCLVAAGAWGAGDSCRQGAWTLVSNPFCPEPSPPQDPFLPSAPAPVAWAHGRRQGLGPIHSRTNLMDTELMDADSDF
T1 sequence (Q99835 28-787): as the sequence (Q99835 28-787 D473H) above, with H446D counted along it
T3 sequence (P56726 33-793): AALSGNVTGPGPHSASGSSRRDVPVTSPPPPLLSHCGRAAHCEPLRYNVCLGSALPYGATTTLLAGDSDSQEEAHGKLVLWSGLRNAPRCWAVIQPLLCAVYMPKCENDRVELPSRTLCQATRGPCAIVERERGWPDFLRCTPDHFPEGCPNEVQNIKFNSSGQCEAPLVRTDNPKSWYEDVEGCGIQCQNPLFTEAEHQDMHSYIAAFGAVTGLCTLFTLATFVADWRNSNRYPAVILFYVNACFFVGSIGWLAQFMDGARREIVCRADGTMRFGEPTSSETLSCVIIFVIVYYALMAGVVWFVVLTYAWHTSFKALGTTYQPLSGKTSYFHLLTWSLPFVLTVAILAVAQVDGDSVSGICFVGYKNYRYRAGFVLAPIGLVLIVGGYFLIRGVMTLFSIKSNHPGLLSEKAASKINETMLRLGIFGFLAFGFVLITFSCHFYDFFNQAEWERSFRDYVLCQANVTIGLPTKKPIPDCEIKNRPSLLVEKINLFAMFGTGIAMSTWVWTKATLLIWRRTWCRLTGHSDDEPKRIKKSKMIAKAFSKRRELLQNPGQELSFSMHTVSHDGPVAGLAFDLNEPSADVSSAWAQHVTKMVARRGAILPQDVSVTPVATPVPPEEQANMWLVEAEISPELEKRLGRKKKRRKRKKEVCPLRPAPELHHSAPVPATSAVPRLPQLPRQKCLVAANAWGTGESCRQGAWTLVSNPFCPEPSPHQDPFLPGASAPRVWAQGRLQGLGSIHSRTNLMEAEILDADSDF

Molecule: KAAD-cyclopamine
- ciliary accumulation of Smo in the absence of Hh stimulation [1, 8]: partially induced ciliary translation

- activity against wild type SMO, Gli-luciferase reporter (SMO-WT; SMO-WT overexpression in C3H10T½ cells): less potent against SMO-WT than GDC-0449
- IC50 (SMO-WT; SMO-WT transfected C3H10T½ cells, read-out: IC50, inhibition of GLI-luciferase reporter activity): 300 nM
- IC50 (SMO-D473H; SMO-D473H transfected C3H10T½ cells, read-out: IC50, inhibition of Gli-luciferase reporter activity): 700 nM
- inhibition of SMO-D473H, Gli-luciferase reporter dose response (SMO-D473H; dose response): can inhibit the drug-resistant mutant
- activity against SMO-D473H, inhibition of Gli-luciferase activity (SMO-D473H): improved potencies
- half-life ([2]; female, CD-1, mouse, mice, single oral 100 mg kg−1 dose, plasma, read-out: terminal half-life (t1/2) (converted)): ~22 h
- pharmacokinetic properties in mice [2]: good pharmacokinetic properties in mice
- less compound sufficient to inhibit endogenous SMO than in SMO overexpression assay (endogenous SMO): approximately 10 fold
Molecule: C[C@@H]1CN(c2ccc(C(=O)Nc3ccc(Cl)c(NC(=O)c4cccc(Cl)c4)c3)cn2)C[C@H](C)N1 [Compound 5]
- tumor growth of SG274 allografts [3]: not only stopped growing but even started to shrink
- Gli1 mRNA levels in SG274 tumors [4]: downregulation in Gli1 mRNA levels
- effect on Smo localization compared with GDC-0449 [1]: very similar effects on Smo localization

Molecule: Cc1nn(-c2ccccc2)c(C)c1/C=N/N1CCN(Cc2ccccc2)CC1 [SANT-1]
- activity against SMO-D473H, inhibition of Gli-luciferase activity (SMO-D473H): partially resistant; also recorded: neither cyclopamine nor SANT-1 can fully inhibit Smo-D473H
- Shh and agonist-induced translocation of Smo to the cilium [5]: prevented Shh and agonist-induced translocation of Smo
- Hh-induced Smo translocation to the primary cilium ([1]; 200 ng/ml octyl-Shh, 5 μM for cyclopamine, 1 μM for the others): prevented Hh-induced Smo translocation
- ciliary accumulation of Smo in the absence of Hh stimulation [1, 8]: did not promote ciliary enrichment

- activity against SMO-D473H, inhibition of Gli-luciferase activity (SMO-D473H): measurable activity
Molecule: CS(=O)(=O)c1ccc(C(=O)Nc2ccc(Cl)c(NC(=O)c3ccccc3)c2)c(Cl)c1 [Compound 3]

Molecule: CNC1CCC(N(Cc2cccc(-c3ccncc3)c2)C(=O)c2sc3ccccc3c2Cl)CC1 (stereo not drawn) [SAG]
- ciliary accumulation of Smo in the absence of Hh stimulation [1, 8]: robust translocation of Smo to the primary odium

Molecule: CC1=C2C[C@H]3[C@@H](CC=C4C[C@@H](O)CC[C@@]43C)[C@@H]2CC[C@]12O[C@@H]1C[C@H](C)CN[C@H]1[C@H]2C [cyclopamine]
- activity against SMO-D473H, inhibition of Gli-luciferase activity (SMO-D473H): partially resistant; also recorded: neither cyclopamine nor SANT-1 can fully inhibit Smo-D473H
- ciliary accumulation of Smo in the absence of Hh stimulation [1, 8]: robust translocation of Smo to the primary odium

- metabolism by human hepatocytes (human hepatocytes): rapidly metabolized by human hepatocytes
Molecule: CCOc1cc(C(=O)Nc2ccc(Cl)c(-c3nc4ccccc4[nH]3)c2)cc(OCC)c1OCC [HhAntag]
- activity against SMO-D473H, inhibition of Gli-luciferase activity (SMO-D473H): essentially equipment against all SMO alleles
- effect on Smo localization compared with GDC-0449 [1]: very similar effects on Smo localization

Molecule: CS(=O)(=O)N1CCN(Cc2cc3nc(-c4cccc5[nH]ncc45)nc(N4CCOCC4)c3s2)CC1 [GDC-0941]
- tumor growth of control and resistant MB allograft models [6]: greatly reduced tumor growth
- pAKT and pS6 levels in tumors [7]: decreased pAKT and pS6 levels

- activity against SMO-D473H, inhibition of Gli-luciferase activity (SMO-D473H): improved potencies
Molecule: O=C(Nc1ccc(Cl)c(NC(=O)c2cccc(Cl)c2)c1)c1ccc(N2CCC(O)CC2)nc1 [Compound 4]
- pharmacokinetic properties in mice [2]: cleared much more rapidly from the blood stream than compound 5
